From US20090297576A1, “Local Delivery of PAR-1 Antagonists to Treat Vascular Complications” (MEDTRONIC VASCULAR, INC., priority 2008, published 2009)

Experiment: solubility of SCH-530348 in the coating solvent ethanol
Format: physicochemical
Settings: stent coating solution
Experimental: In the following Example, ethanol is chosen as the solvent of choice. The PAR-1 antagonist is SCH-530348. […] Persons having ordinary skill in the art of polymer chemistry can easily pair the appropriate solvent system to the polymer-drug combination and achieve optimum results with no more than routine experimentation.
250 mg of SCH-530348 is carefully weighed and added to a small neck glass bottle containing 2.8 ml of ethanol. The SCH-530348-ethanol suspension is then thoroughly mixed until a clear solution is achieved.

solubility in ethanol: freely soluble
SMILES: CCOC(=O)N[C@@H]1CC[C@@H]2[C@@H](C1)C[C@H]1C(=O)O[C@H](C)[C@H]1[C@H]2/C=C/c1ccc(-c2cccc(F)c2)cn1 [SCH-530348]
